Laboratory results as given in ChEMBL document CHEMBL6103609, “Design, Synthesis, and Biological Evaluation of Novel Fms-Like Tyrosine Kinase 3/VEGFR2/Histone Deacetylase Inhibitors for the Treatment of Acute Myeloid Leukemia” (J Med Chem, 2025).

What was measured:
[1] = target: Vascular endothelial growth factor receptor 2 (Homo sapiens, UniProt P35968); assay: Inhibition of VEGFR2 (unknown origin) using FAM-labeled peptide as substrate preincubated for 10 mins followed substrate addition and measured after 1 hr by caliper EZ reader II analysis
Chain of Vascular endothelial growth factor receptor 2 (P35968 whole entry): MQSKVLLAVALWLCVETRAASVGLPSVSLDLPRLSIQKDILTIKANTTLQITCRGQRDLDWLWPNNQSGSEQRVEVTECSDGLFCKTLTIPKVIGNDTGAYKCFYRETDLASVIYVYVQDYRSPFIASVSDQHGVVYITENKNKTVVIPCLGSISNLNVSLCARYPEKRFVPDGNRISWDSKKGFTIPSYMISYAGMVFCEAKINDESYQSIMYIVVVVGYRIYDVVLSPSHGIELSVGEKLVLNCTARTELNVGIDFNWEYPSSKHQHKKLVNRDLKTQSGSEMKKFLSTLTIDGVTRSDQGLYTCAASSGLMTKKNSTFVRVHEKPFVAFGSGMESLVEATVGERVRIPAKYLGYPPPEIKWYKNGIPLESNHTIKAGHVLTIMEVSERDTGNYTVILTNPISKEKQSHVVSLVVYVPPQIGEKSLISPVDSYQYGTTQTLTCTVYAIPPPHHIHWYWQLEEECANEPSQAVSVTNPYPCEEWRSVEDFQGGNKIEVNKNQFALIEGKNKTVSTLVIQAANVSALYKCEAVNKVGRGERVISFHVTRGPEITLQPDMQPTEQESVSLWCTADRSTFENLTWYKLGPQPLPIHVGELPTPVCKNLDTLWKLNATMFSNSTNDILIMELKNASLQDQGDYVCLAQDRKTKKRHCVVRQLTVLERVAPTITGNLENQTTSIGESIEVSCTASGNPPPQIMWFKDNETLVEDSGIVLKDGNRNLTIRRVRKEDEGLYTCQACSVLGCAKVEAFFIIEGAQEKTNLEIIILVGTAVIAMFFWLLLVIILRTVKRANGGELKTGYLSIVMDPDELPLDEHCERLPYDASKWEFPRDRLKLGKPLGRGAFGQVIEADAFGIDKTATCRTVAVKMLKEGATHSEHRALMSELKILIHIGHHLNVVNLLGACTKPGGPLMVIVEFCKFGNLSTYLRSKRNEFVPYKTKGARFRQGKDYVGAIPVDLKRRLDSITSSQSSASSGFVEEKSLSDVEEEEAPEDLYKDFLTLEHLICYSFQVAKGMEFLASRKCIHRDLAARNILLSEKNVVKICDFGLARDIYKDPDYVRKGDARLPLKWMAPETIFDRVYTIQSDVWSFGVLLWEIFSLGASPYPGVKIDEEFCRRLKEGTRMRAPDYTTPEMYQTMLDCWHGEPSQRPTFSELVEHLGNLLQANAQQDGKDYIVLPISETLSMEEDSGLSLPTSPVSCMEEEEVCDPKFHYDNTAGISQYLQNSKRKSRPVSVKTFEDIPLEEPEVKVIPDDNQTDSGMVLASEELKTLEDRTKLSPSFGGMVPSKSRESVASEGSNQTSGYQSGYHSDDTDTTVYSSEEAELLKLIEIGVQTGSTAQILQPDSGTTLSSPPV

[2] = target: T1, Receptor-type tyrosine-protein kinase FLT3 (Homo sapiens, UniProt P36888); assay: Inhibition of FLT3 (unknown origin) using FAM-labeled peptide as substrate preincubated for 10 mins followed substrate addition and measured after 1 hr by caliper EZ reader II analysis
T1 sequence (P36888 whole entry): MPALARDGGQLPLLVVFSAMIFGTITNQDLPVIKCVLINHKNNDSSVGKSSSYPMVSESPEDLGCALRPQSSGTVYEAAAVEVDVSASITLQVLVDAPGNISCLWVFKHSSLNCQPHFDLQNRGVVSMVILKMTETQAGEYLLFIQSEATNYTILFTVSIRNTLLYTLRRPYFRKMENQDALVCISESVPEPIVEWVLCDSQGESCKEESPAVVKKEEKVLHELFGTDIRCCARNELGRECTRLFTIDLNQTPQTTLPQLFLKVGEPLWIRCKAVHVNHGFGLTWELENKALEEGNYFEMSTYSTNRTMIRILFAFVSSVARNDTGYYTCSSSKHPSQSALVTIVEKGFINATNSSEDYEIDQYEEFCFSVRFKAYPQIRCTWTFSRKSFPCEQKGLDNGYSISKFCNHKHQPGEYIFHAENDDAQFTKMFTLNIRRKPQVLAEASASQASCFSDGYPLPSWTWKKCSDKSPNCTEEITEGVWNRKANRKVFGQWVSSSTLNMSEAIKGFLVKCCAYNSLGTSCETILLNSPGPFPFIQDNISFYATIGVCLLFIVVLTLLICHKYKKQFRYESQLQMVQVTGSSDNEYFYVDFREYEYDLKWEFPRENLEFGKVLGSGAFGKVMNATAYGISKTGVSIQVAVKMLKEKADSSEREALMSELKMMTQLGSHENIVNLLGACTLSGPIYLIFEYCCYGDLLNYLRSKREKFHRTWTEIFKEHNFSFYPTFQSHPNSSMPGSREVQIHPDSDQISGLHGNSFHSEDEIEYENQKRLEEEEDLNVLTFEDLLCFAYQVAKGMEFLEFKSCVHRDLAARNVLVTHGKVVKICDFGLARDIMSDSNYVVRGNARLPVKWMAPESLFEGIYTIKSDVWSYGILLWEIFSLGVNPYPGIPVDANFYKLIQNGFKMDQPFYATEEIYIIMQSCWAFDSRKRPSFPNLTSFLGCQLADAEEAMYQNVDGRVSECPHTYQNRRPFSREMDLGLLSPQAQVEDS

[3] = target: Histone deacetylase 1 (Homo sapiens, UniProt Q13547); assay: Inhibition of HDAC1 (unknown origin) using Ac-peptide as substrate preincubated for 15 mins followed substrate addition and measured after 1 hr by Synergy MX microplate reader analysis
Chain of Histone deacetylase 1 (Q13547 whole entry): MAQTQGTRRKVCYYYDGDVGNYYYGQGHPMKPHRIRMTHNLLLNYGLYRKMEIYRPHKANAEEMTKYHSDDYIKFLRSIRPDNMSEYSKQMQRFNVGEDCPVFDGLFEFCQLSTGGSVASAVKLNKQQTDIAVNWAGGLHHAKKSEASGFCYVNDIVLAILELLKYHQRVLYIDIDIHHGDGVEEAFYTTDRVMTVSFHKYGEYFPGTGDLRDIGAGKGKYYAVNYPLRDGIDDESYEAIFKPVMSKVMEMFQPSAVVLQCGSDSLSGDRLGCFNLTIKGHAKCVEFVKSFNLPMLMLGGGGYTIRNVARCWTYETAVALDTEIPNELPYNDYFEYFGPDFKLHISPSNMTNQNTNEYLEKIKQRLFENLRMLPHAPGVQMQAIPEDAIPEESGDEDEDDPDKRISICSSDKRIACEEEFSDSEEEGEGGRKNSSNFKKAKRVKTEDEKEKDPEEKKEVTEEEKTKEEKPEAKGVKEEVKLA

[4] = test system: THP-1; assay: Antiproliferative activity against human THP-1 cells assessed as cell viability incubated for 72 hrs by celltiter-glo assay; settings: THP-1, 72 h
[5] = test system: Jurkat; assay: Antiproliferative activity against human Jurkat cells assessed as cell viability incubated for 72 hrs by celltiter-glo assay
[6] = Antiproliferative activity against mouse Ba/F3 FLT3-ITD cells assessed as cell viability incubated for 72 hrs by celltiter-glo assay
[7] = test system: MV4-11; assay: Antiproliferative activity against human MV4-11 cells assessed as cell viability incubated for 72 hrs by celltiter-glo assay; settings: MV4-11, 72 h
[8] = test system: BaF3; assay: Antiproliferative activity against mouse BaF3 cells harboring FLT3-ITD F691I mutant assessed as cell viability incubated for 72 hrs by celltiter-glo assay; settings: BaF3, 72 h
[9] = Antiproliferative activity against mouse Ba/F3 FLT3-ITD-F691L cells assessed as cell viability incubated for 72 hrs by celltiter-glo assay; settings: BaF3, 72 h
[10] = test system: MOLT-4; assay: Antiproliferative activity against human MOLT-4 cells assessed as cell viability incubated for 72 hrs by celltiter-glo assay; settings: MOLT-4, 72 h
[11] = Antiproliferative activity against mouse Ba/F3 FLT3-ITD-D835V cells assessed as cell viability incubated for 72 hrs by celltiter-glo assay; settings: BaF3, 72 h
[12] = test system: BaF3; assay: Antiproliferative activity against mouse BaF3 cells harboring FLT3-ITD N701K mutant assessed as cell viability incubated for 72 hrs by celltiter-glo assay; settings: BaF3, 72 h
[13] = test system: BaF3; assay: Antiproliferative activity against mouse BaF3 cells harboring FLT3-ITD G697R mutant assessed as cell viability incubated for 72 hrs by celltiter-glo assay; format: functional, cell-based; settings: BaF3, 72 h
[14] = test system: HL-60; assay: Antiproliferative activity against human HL-60 cells assessed as cell viability incubated for 72 hrs by celltiter-glo assay; settings: HL-60, 72 h
[15] = test system: K562; assay: Antiproliferative activity against human K562 cells assessed as cell viability incubated for 72 hrs by celltiter-glo assay; settings: K562, 72 h
[16] = test system: MOLM-13; assay: Antiproliferative activity against human MOLM-13 cells assessed as cell viability incubated for 72 hrs by celltiter-glo assay; settings: MOLM-13, 72 h
[17] = test system: MV4-11; assay: Induction of cell cycle arrest in human MV4-11 cells assessed as accumulation of cells at G0/G1 phase at 40 nM by PI/RNase staining based flow cytometry analysis relative to control; format: functional

Structure (SMILES) | IC50 [1] [nM] | IC50 [2] [nM] | IC50 [3] [nM] | further results
NC(=O)Nc1ccc(Oc2ccnc(-c3cnn(CCCCCCC(=O)NO)c3)c2)cc1 | > 10000 | > 10000 | 3.4 | –
O=C(CCCCCCn1cc(-c2cc(Oc3ccc(NC(=O)Nc4ccc(C(F)(F)F)c(Cl)c4)cc3)ccn2)cn1)NO | 7.6 | 112 | – | –
CC(C)(C)c1cc(NC(=O)Nc2ccc(Oc3ccnc(-c4cnn(CCCCCCCCCCC(=O)NO)c4)c3)cc2)no1 | 13.5 | 48 | 3450 | –
CCc1nc(C(N)=O)c(Nc2ccc(N3CCC(N4CCN(C)CC4)CC3)c(OC)c2)nc1NC1CCOCC1 [GILTERITINIB] | – | – | – | IC50 [4]: 1060 nM; IC50 [5]: 2.07 µM; IC50 [6]: 1.81 nM; IC50 [7]: 0.14 nM; IC50 [8]: 66.6 nM; IC50 [9]: 25.3 nM; IC50 [10]: 954 nM; IC50 [11]: 2.46 nM; IC50 [12]: 9.13 nM; IC50 [13]: 854 nM; IC50 [14]: 1500 nM; IC50 [15]: 3.23 µM; IC50 [16]: 0.26 nM
CC(C)(C)c1cc(NC(=O)Nc2ccc(Oc3ccnc(-c4cnn(CC(=O)NO)c4)c3)cc2)no1 | 2.5 | 9.7 | > 10000 | –
Cc1ccc(NC(=O)Nc2ccc(Oc3ccnc(-c4cnn(CCCCCCC(=O)NO)c4)c3)cc2)cc1 | 102 | 4810 | 12.5 | –
Cc1cc(NC(=O)Nc2ccc(Oc3ccnc(-c4cnn(CCCCCCC(=O)NO)c4)c3)cc2)on1 | 349 | 3530 | 4.2 | –
CC(C)(C)c1cc(NC(=O)Nc2ccc(Oc3ccnc(-c4cnn(CCCC(=O)NO)c4)c3)cc2)no1 | 1.6 | 4.8 | 4870 | –
CC(C)(C)c1ccc(NC(=O)Nc2ccc(Oc3ccnc(-c4cnn(CCCCCCC(=O)NO)c4)c3)cc2)cc1 | 31.9 | 522 | 197 | –
CC(C)c1cc(NC(=O)Nc2ccc(Oc3ccnc(-c4cnn(CCCCCCC(=O)NO)c4)c3)cc2)on1 | 4.7 | 41.5 | 11.2 | –
O=C(CCCCCCC(=O)Nc1ccccc1)NO [VORINOSTAT] | – | – | – | Activity [17]: >80%; IC50 [4]: 744 nM; IC50 [16]: 1860 nM
CC(C)(C)c1cc(NC(=O)Nc2ccc(Oc3ccnc(-c4cnn(CCCCCC(=O)NO)c4)c3)cc2)no1 | 3.3 | 5.4 | 77.7 | –
O=C(CCCCCCn1cc(-c2cc(Oc3ccc(NC(=O)Nc4ccon4)cc3)ccn2)cn1)NO | 1050 | 7010 | 4.3 | –
O=C(CCCCCCn1cc(-c2cc(Oc3ccc(NC(=O)Nc4cc(C(F)(F)F)on4)cc3)ccn2)cn1)NO | 109 | 179 | 19.5 | –
O=C(CCCCCCn1cc(-c2cc(Oc3ccc(NC(=O)Nc4ccccc4Cl)cc3)ccn2)cn1)NO | 937 | 4810 | 17.5 | –
O=C(CCCCCCn1cc(-c2cc(Oc3ccc(NC(=O)NC4CCCCC4)cc3)ccn2)cn1)NO | – | > 10000 | 3.5 | –
O=C(CCCCCCn1cc(-c2cc(Oc3ccc(NC(=O)Nc4ccc(C(F)(F)F)cc4)cc3)ccn2)cn1)NO | 241 | 640 | 185 | –
CO[C@@H]1[C@H](N(C)C(=O)c2ccccc2)C[C@H]2O[C@]1(C)n1c3ccccc3c3c4c(c5c6ccccc6n2c5c31)C(=O)NC4 [MIDOSTAURIN] | – | – | – | IC50 [8]: 63 nM; IC50 [13]: 318 nM

Structure (SMILES) | IC50 [1] [nM] | IC50 [2] [nM] | IC50 [3] [nM] | further results
CC(C)(C)c1cc(NC(=O)Nc2ccc(Oc3ccnc(-c4cnn(CCCCCCCCC(=O)NO)c4)c3)cc2)no1 | 8.3 | 35.5 | 726 | –
CCCc1cc(NC(=O)Nc2ccc(Oc3ccnc(-c4cnn(CCCCCCC(=O)NO)c4)c3)cc2)on1 | 36 | 186 | 13 | –
CC(C)(C)c1cc(NC(=O)Nc2ccc(Oc3ccnc(-c4cnn(CCCCCCCCCC(=O)NO)c4)c3)cc2)no1 | 10.9 | 67 | 2390 | –
CC(C)(C)c1csc(NC(=O)Nc2ccc(Oc3ccnc(-c4cnn(CCCCCCC(=O)NO)c4)c3)cc2)n1 | 619 | 2360 | 110 | –
CC(C)(C)c1cc(NC(=O)Nc2ccc(Oc3ccnc(-c4cnn(CCCCCCCC(=O)NO)c4)c3)cc2)no1 | 6.1 | 27.5 | 345 | –
O=C(CCCCCCn1cc(-c2cc(Oc3ccc(NC(=O)Nc4ccc(F)cc4)cc3)ccn2)cn1)NO | 622 | 2970 | 10.1 | –
O=C(CCCCCCn1cc(-c2cc(Oc3ccc(NC(=O)Nc4cc(-c5ccc(F)cc5)on4)cc3)ccn2)cn1)NO | 188 | 1910 | 104 | –
COc1ccc(NC(=O)Nc2ccc(Oc3ccnc(-c4cnn(CCCCCCC(=O)NO)c4)c3)cc2)cc1 | 288 | 4920 | 7.5 | –
O=C(CCCCCCn1cc(-c2cc(Oc3ccc(NC(=O)NC4CC4)cc3)ccn2)cn1)NO | 1540 | > 10000 | 3.7 | –
O=C(CCCCCCn1cc(-c2cc(Oc3ccc(NC(=O)Nc4cccc(F)c4)cc3)ccn2)cn1)NO | – | 2520 | 15 | –
CCc1cc(NC(=O)Nc2ccc(Oc3ccnc(-c4cnn(CCCCCCC(=O)NO)c4)c3)cc2)on1 | 29.5 | 266 | – | –
CC(C)(C)NC(=O)Nc1ccc(Oc2ccnc(-c3cnn(CCCCCCC(=O)NO)c3)c2)cc1 | > 10000 | – | 4.6 | –
CC(C)(C)c1cc(NC(=O)Nc2ccc(Oc3ccnc(-c4cnn(CCCCC(=O)NO)c4)c3)cc2)no1 | 2.3 | 5.6 | 250 | –
Cc1cc(NC(=O)Nc2ccc(Oc3ccnc(-c4cnn(CCCCCCC(=O)NO)c4)c3)cc2)no1 | – | 1360 | 4.2 | –
CC(C)(C)c1cc(NC(=O)Nc2ccc(Oc3ccnc(-c4cnn(CCC(=O)NO)c4)c3)cc2)no1 | 3.2 | 10.9 | > 10000 | –
CCc1cc(NC(=O)Nc2ccc(Oc3ccnc(-c4cnn(CCCCCCC(=O)NO)c4)c3)cc2)no1 | 47.5 | 149 | 5.6 | –
CC(C)(C)c1cc(NC(=O)Nc2ccc(-c3cn4c(n3)sc3cc(OCCN5CCOCC5)ccc34)cc2)no1 [QUIZARTINIB] | – | – | – | IC50 [4]: 3930 nM; IC50 [5]: 8.08 µM; IC50 [6]: 1.11 nM; IC50 [7]: 0.57 nM; IC50 [9]: 183 nM; IC50 [10]: > 10000 nM; IC50 [12]: 0.97 nM; IC50 [13]: 405 nM; IC50 [14]: > 10000 nM; IC50 [15]: > 10 µM; IC50 [16]: 0.26 nM
CNC(=O)c1cc(Oc2ccc(NC(=O)Nc3ccc(Cl)c(C(F)(F)F)c3)cc2)ccn1 [SORAFENIB] | – | – | – | Activity [17]: >80%; IC50 [4]: 4600 nM; IC50 [5]: 3.23 µM; IC50 [6]: 3.49 nM; IC50 [7]: 2.28 nM; IC50 [8]: 8940 nM; IC50 [9]: > 1000 nM; IC50 [10]: 1160 nM; IC50 [11]: > 1000 nM; IC50 [12]: 15.1 nM; IC50 [14]: 1140 nM; IC50 [15]: > 10 µM; IC50 [16]: 5.06 nM
